These are literature values, as cited in publication PMC7645643 (Engineering in Life Sciences, 2020).

Regarding Enfuvirtide [T-20], the in vivo half-life entry is “approximately 4 h”.
